# Data: patent US20110152267A1, “Compositions and Methods for Treating Hyperproliferative Disorders” (Texas Tech University System, priority 2009, published 2011)
# Assays:
# Assay type in all cases: cell-based, human
# [1] = system: RPMI-8226 Multiple Myeloma cell line; assay: DIMSCAN cytotoxicity, fenretinide + L-threo-sphinganines 3:1 (Example B2); conditions: 96 h
# Experimental: (§1) Cytotoxicity Assay—Once again, cytotoxicity is determined using the DIMSCAN assay system (R. Proffitt et al., Cytometry 24, 204-213 (1996); T. Frgala et al., Mol Cancer Ther. 6:886-97, 2007). The system employs digital imaging microscopy to quantify viable cells, which selectively accumulate fluorescein diacetate to become brightly fluorescent. The system is capable of measuring cytotoxicity over a 4-5 log dynamic range by quenching the residual fluorescence of dead and dying cells with eosin Y and quantifying the total fluorescence of viable cells using digital thresholding. Measured fluorescence is directly proportionate to the number of viable cells. A comparison of the total fluorescence of a drug-treated cell population to the fluorescence of a similar number of untreated cells yields a survival fraction. In brief, 2000 to 10,000 cells/well (depending on size and growth rates) are replicate plated into 60 wells of a 96-well tissue culture plate in 0.1 mL of whole medium and allowed to attach overnight. Drug(s) are then added in 0.05 mL of whole medium to the final concentrations indicated. Drugs (fenretinide, and various chain length L-threo-sphinganines) were tested both as single agents and in a 3:1 ratio of fenretinide:sphinganine. C18-L-threo-sphinganine, or “safingol,” was also tested and results shown for reference. There are 12 wells treated per drug concentration. Twelve wells receive drug vehicle-only to the appropriate final concentration and serve as controls for the plate. Cells are incubated for 96 hours at 37° C. in ambient air with 5% CO2. Fluorescein diacetate is then added to each well in 0.05 mL media to a final concentration of 8 microgram/mL. Cells are incubated for a further 15 minutes at 37° C. and 0.03 mL of 0.5% eosin Y is added to each well. Total fluorescence of viable cells is then measured by digital imaging microscopy. Results were graphed as the ratio of the fluoresecence of drug-treated wells to non-drug treated control wells (i.e., Survival Fraction). All tests were performed at least twice. Representative results are shown.
# (§2) The Combination Index (CI) is a term to describe mathematical modeling of the pharmacologic effects on cytotoxicity (cell death) of two drugs in combination based. Cytotoxic “synergy” is defined as a cell death affect which is greater than would be expected from a simple product of the single agent cytotoxicities alone (i.e. an “additive” effect). By Chou-Talalay analysis, a CI<0.9 on a Fraction Affected (“Fa”, i.e. fraction of cells killed) indicates synergy, with smaller numbers indicating greater synergy; a CI of 0.9-1.1 signifies an additive or near-additive effect; and a CI>1.1 means the drug combination is antagonistic.
# Fenretinide and L-threo-sphinganines tested in human Multiple Myeloma (a cancer of the blood and bone marrow) cell line, RPMI-8226.
# [2] = system: U-266 Multiple Myeloma cell line; assay: DIMSCAN cytotoxicity, fenretinide + L-threo-sphinganines 3:1 (Example B3); conditions: 96 h
# Experimental: as §1, §2
# Fenretinide and L-threo-sphinganines tested in human Multiple Myeloma (a cancer of the blood and bone marrow) cell line, U-266.
# [3] = system: U-118 Glioblastoma cell line; assay: DIMSCAN cytotoxicity, fenretinide + L-threo-sphinganines 3:1 (Example B5); design: key to CI (Combination Index): CI<0.9 synergy, 0.9-1.1 additive, >1.1 antagonistic; conditions: U-118 MG, 96 h
# Experimental: as §1, §2
# Fenretinide and L-threo-sphinganines tested in human Glioblastoma (brain cancer) cell line, U-118.
# [4] = system: SJ-GBM2 Glioblastoma multiforme cell line; assay: DIMSCAN cytotoxicity, fenretinide + L-threo-sphinganines 3:1 (Example B7); design: key to CI (Combination Index): Chou-Talalay CI: <0.9 synergy, 0.9-1.1 additive, >1.1 antagonism; conditions: 96 h
# Experimental: as §1, §2
# Fenretinide and L-threo-sphinganines tested in human Glioblastoma multiforme (brain cancer) cell line, SJ-GBM2.
# [5] = system: A-2058 melanoma cell line; assay: DIMSCAN cytotoxicity, fenretinide + L-threo-sphinganines 3:1 (Example B11); conditions: 96 h
# Experimental: as §1, §2
# Fenretinide and L-threo-sphinganines tested in human melanoma (skin cancer) cell line, A-2058.
# [6] = system: A-549 lung adenocarcinoma cell line; assay: DIMSCAN cytotoxicity, fenretinide + L-threo-sphinganines 3:1 (Example B13); conditions: 96 h
# Experimental: as §1, §2
# Fenretinide and L-threo-sphinganines tested in human lung adenocarcinoma (lung cancer) cell line, A-549.
# [7] = system: PC-3 prostate adenocarcinoma cell line; assay: DIMSCAN cytotoxicity, fenretinide + L-threo-sphinganines 3:1 (Example B17)
# Experimental: as §1, §2
# Fenretinide and L-threo-sphinganines tested in human prostate adenocarcinoma (prostate cancer) cell line, PC-3.
# [8] = system: PANC-1 pancreatic adenocarcinoma cell line; assay: DIMSCAN cytotoxicity, fenretinide + L-threo-sphinganines 3:1 (Example B18)
# Experimental: as §1, §2
# Fenretinide and L-threo-sphinganines tested in human pancreatic adenocarcinoma (pancreas cancer) cell line, PANC-1.
# [9] = 4-HPR 1.5 μM + L-threo-sphinganine 0.5 μM
# [10] = 4-HPR 3 μM + L-threo-sphinganine 1 μM
# [11] = 4-HPR 6 μM + L-threo-sphinganine 2 μM
# [12] = 4-HPR 9 μM + L-threo-sphinganine 3 μM
smiles,measurement,setting,value
"CCCCCCCCCCCCCCC[C@H](O)[C@@H](N)CO [C18, (2S,3S)-2-amino-1,3-octadecanediol, reference compound]",CI (Combination Index),[1]; [9],1.0
same,Fa (fraction affected),[1]; [9],0.616
same,CI (Combination Index),[1]; [10],0.9
same,Fa (fraction affected),[1]; [10],0.879
same,CI (Combination Index),[1]; [11],0.2
same,Fa (fraction affected),[1]; [11],0.997
same,CI (Combination Index),[1]; [12],>0.1
same,Fa (fraction affected),[1]; [12],1
same,CI (Combination Index),[2]; [9],1.4
same,Fa (fraction affected),[2]; [9],0.048
same,CI (Combination Index),[2]; [10],1.5
same,Fa (fraction affected),[2]; [10],0.268
same,CI (Combination Index),[2]; [11],1.3
same,Fa (fraction affected),[2]; [11],0.883
same,CI (Combination Index),[2]; [12],0.8
same,Fa (fraction affected),[2]; [12],0.999
same,CI (Combination Index),[3]; [9],1.4
same,Fa (fraction affected),[3]; [9],0.317
same,CI (Combination Index),[3]; [10],2.3
same,Fa (fraction affected),[3]; [10],0.407
same,CI (Combination Index),[3]; [11],0.5
same,Fa (fraction affected),[3]; [11],0.976
same,CI (Combination Index),[3]; [12],0.3
same,Fa (fraction affected),[3]; [12],0.995
same,CI (Combination Index),[4]; [9],>>1
same,Fa (fraction affected),[4]; [9],0.001
same,CI (Combination Index),[4]; [10],0.6
same,Fa (fraction affected),[4]; [10],0.712
same,CI (Combination Index),[4]; [11],0.6
same,Fa (fraction affected),[4]; [11],0.987
same,CI (Combination Index),[4]; [12],0.7
same,Fa (fraction affected),[4]; [12],0.999
same,CI (Combination Index),[5]; [9],>1
same,Fa (fraction affected),[5]; [9],0.001
same,CI (Combination Index),[5]; [10],>1
same,Fa (fraction affected),[5]; [10],0.01
same,CI (Combination Index),[5]; [11],>1
same,Fa (fraction affected),[5]; [11],0.099
same,CI (Combination Index),[5]; [12],1.22
same,Fa (fraction affected),[5]; [12],0.815
same,CI (Combination Index),[6]; [9],1.0
same,Fa (fraction affected),[6]; [9],0.012
same,CI (Combination Index),[6]; [10],1.0
same,Fa (fraction affected),[6]; [10],0.05
same,CI (Combination Index),[6]; [11],1.0
same,Fa (fraction affected),[6]; [11],0.200
same,CI (Combination Index),[6]; [12],0.6
same,Fa (fraction affected),[6]; [12],0.700
same,CI,[7]; [9],1.1
same,Fa,[7]; [9],0.202
same,CI,[7]; [10],1.4
same,Fa,[7]; [10],0.346
same,CI,[7]; [11],1.1
same,Fa,[7]; [11],0.719
same,CI,[7]; [12],0.7
same,Fa,[7]; [12],0.918
same,CI,[8]; [9],2.5
same,Fa,[8]; [9],0.136
same,CI,[8]; [10],2.1
same,Fa,[8]; [10],0.336
same,CI,[8]; [11],1.4
same,Fa,[8]; [11],0.620
same,CI,[8]; [12],1.5
same,Fa,[8]; [12],0.700
"CCCCCCCCCCCCCCCC[C@H](O)[C@@H](N)CO [C19, (2S,3S)-2-amino-1,3-nonadecanediol]",CI (Combination Index),[1]; [9],0.9
same,Fa (fraction affected),[1]; [9],0.649
same,CI (Combination Index),[1]; [10],0.9
same,Fa (fraction affected),[1]; [10],0.895
same,CI (Combination Index),[1]; [11],0.5
same,Fa (fraction affected),[1]; [11],0.996
same,CI (Combination Index),[1]; [12],>0.1
same,Fa (fraction affected),[1]; [12],1.000
same,CI (Combination Index),[2]; [9],1.0
same,Fa (fraction affected),[2]; [9],0.19
same,CI (Combination Index),[2]; [10],1.4
same,Fa (fraction affected),[2]; [10],0.414
same,CI (Combination Index),[2]; [11],0.9
same,Fa (fraction affected),[2]; [11],0.933
same,CI (Combination Index),[2]; [12],0.3
same,Fa (fraction affected),[2]; [12],0.999
same,CI (Combination Index),[3]; [9],1.3
same,Fa (fraction affected),[3]; [9],0.530
same,CI (Combination Index),[3]; [10],0.9
same,Fa (fraction affected),[3]; [10],0.882
same,CI (Combination Index),[3]; [11],0.4
same,Fa (fraction affected),[3]; [11],0.991
same,CI (Combination Index),[3]; [12],0.3
same,Fa (fraction affected),[3]; [12],0.998
same,CI (Combination Index),[4]; [9],>>1
same,Fa (fraction affected),[4]; [9],0.001
same,CI (Combination Index),[4]; [10],0.4
same,Fa (fraction affected),[4]; [10],0.672
same,CI (Combination Index),[4]; [11],0.7
same,Fa (fraction affected),[4]; [11],0.925
same,CI (Combination Index),[4]; [12],0.8
same,Fa (fraction affected),[4]; [12],0.997
same,CI (Combination Index),[5]; [9],2.1
same,Fa (fraction affected),[5]; [9],0.016
same,CI (Combination Index),[5]; [10],1.7
same,Fa (fraction affected),[5]; [10],0.198
same,CI (Combination Index),[5]; [11],1.8
same,Fa (fraction affected),[5]; [11],0.648
same,CI (Combination Index),[5]; [12],0.8
same,Fa (fraction affected),[5]; [12],0.997
same,CI (Combination Index),[6]; [9],1.6
same,Fa (fraction affected),[6]; [9],0.000
same,CI (Combination Index),[6]; [10],0.6
same,Fa (fraction affected),[6]; [10],0.007
same,CI (Combination Index),[6]; [11],0.7
same,Fa (fraction affected),[6]; [11],0.159
same,CI (Combination Index),[6]; [12],0.9
same,Fa (fraction affected),[6]; [12],0.413
same,CI,[7]; [9],1.0
same,Fa,[7]; [9],0.233
same,CI,[7]; [10],1.1
same,Fa,[7]; [10],0.406
same,CI,[7]; [11],1.1
same,Fa,[7]; [11],0.635
same,CI,[7]; [12],0.5
same,Fa,[7]; [12],0.913
same,CI,[8]; [9],1.5
same,Fa,[8]; [9],0.182
same,CI,[8]; [10],1.8
same,Fa,[8]; [10],0.321
same,CI,[8]; [11],1.4
same,Fa,[8]; [11],0.663
same,CI,[8]; [12],0.1
same,Fa,[8]; [12],0.997
